Literature values, collected in paper PMC10526633 (Structure (London, England : 1993), 2023).

How the values were obtained:
SKBr3 cells = conditions: highest tested concentration of 20 μM
HER2 signaling = conditions: highest tested concentration of 20 μM
N62Q mutant cells = conditions: N62Q GRP94 mutant cells

| Effect of limited sugar removal on ligand binding to GRP94 (GRP94; EndoH, retains N-acetylglucosamine attached to Asn, ref Yan et al. cell Reports 2020) | Effect of N217A mutation on ligand binding (GRP94; N217A mutant of GRP94) | Effect of complete deglycosylation on GRP94 binding to ligand (GRP94; PNGase F, ref Yan et al. cell Reports 2020) | SMILES | Cytotoxicity in SKBr3 cells (SKBr3 cells) | Effect on HER2 signaling in SKBr3 cells (HER2 signaling) | Sensitivity of N62Q mutant cells to ligand (N62Q mutant cells) |
| --- | --- | --- | --- | --- | --- | --- |
| – | – | – | COC(=O)c1c(O)cc(O)c(Cl)c1CCc1nccn1Cc1ccccc1 [BnIm, methyl 2-(2-(1-benzyl-1H-imidazol-2-yl)ethyl)-3-chloro-4,6-dihydroxybenzoate] | no cytotoxicity | no effect | – |
| partially reduces | no effect | abolishes | CC(C)NCCCn1c(Sc2cc(Cl)cc(Cl)c2)nc2c(N)ncnc21 [PU-WS13] | – | – | insensitivity |
